Assays:
Thrombin = Thrombin (Homo sapiens (Human), UniProt P00734); assay: Dose response assay for protease inhibitors: thrombin; assay type: biochemical; settings: selectivity, thrombin over Factor XIa
Outline: (§1)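 Fluorogenic AMC-peptide cleavage in 20 mM Hepes pH 7.4, 150 mM NaCl, 0.02% Tween 20; 100 μM stock substrate dilution (Glp-Pro-Arg-AMC for thrombin/trypsin; Pro-Phe-Arg-AMC or Boc-Leu-Gly-Arg-AMC for Factor Xa). Enzyme diluted to 0.5 nM, added last to two-fold compound series; kinetic read at 30° C, 30 min (Factor Xa 60 min); IC50 fitted.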

Factor Xa = Factor Xa (Homo sapiens (Human), UniProt P00742); assay: Dose response assay for protease inhibitors: Factor Xa; assay type: biochemical; settings: selectivity, Factor Xa over Factor XIa
Sequence of Factor Xa (P00742 235-488): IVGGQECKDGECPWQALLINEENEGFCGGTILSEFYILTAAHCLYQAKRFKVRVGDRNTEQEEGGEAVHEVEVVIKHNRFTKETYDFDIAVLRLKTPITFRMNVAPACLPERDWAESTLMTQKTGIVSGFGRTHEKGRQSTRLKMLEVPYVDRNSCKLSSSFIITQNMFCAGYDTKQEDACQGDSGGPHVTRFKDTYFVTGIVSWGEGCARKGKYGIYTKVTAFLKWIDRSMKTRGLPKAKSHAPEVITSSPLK
Sequence of Factor Xa (P00742 41-179 partner): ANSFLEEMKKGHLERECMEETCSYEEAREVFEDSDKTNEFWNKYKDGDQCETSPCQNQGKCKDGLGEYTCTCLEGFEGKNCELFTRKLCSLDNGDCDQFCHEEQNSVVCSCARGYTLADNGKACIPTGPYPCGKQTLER
Outline: as §1

[1] = Plasma protein binding by equilibrium dialysis; assay type: in vitro ADME; settings: both sexes, pH 7.4, pooled human plasma, 4 hours at 37° C., read-out: PPB (%)
Experimental: The following procedure was used to determine the plasma protein binding of a test compound in pooled plasma from human (mixed gender) via equilibrium dialysis in a 96-well plate format. The dialysate compartment was loaded with phosphate-buffered saline (pH 7.4) and the sample side was loaded with plasma spiked with the test compound at a concentration of 10 μM. After loading, samples were covered and incubated for 4 hours at 37° C. After incubation, each compartment was sampled, diluted with acetonitrile/buffer and centrifuged. The supernatants were analyzed by HPLC-MS/MS. The analyte peak areas obtained from HPLC-MS/MS analysis of each sample were used to calculate protein binding according to the following equation (Equation 4):
[formula] where: AREAp=Peak area of analyte in protein matrix; AREAb=Peak area of analyte in buffer.
The amount measured in the plasma compartment included both free and bound drug, while that on the buffer side represented free drug only; the differences were used to calculate the percentage plasma protein bound. Three reference compounds were tested in each assay: acebutolol, quinidine and warfarin.

Trypsin = assay: Dose response assay for protease inhibitors: trypsin; assay type: biochemical; settings: selectivity, trypsin over Factor XIa
Outline: as §1

[2] = Aqueous solubility in PBS by HPLC-UV/VIS; assay type: physicochemical; settings: phosphate buffered saline, aqueous buffer, kinetic from dmso stock; PBS pH 7.4, 2% DMSO, 24 h at room temperature
Experimental: The following procedure was used to determine the aqueous solubility of a test compound in phosphate buffered saline (PBS-NaCl 137 mM, KCl 2.7 mM, Na2HPO4 8.1 mM, KH2PO4 1.5 mM, pH 7.4) in 96-well plate format by HPLC-UV/VIS analysis. The test compound was prepared at 200 μM in PBS from a 10 mM DMSO stock solution. The final DMSO concentration was 2%. The PBS buffer samples were mixed thoroughly followed by incubation at room temperature for 24 h. At the end of the incubation, the PBS buffer samples were centrifuged and supernatants analyzed by HPLC. The aqueous solubility (μM) of the test compound in PBS was determined by comparing the peak area of the principal peak in the calibration standard (200 μM) with the peak area of the corresponding peak in each of the PBS samples. The range of the assay was approximately 0.5 μM to 200 μM. The reference compounds used in each assay were metoprolol, rifampicin, ketoconazole, phenytoin, haloperidol, simvastatin, diethylstilbestrol, and tamoxifen ranking from fully soluble (200 μM) to poorly soluble (<1 μM).

| SMILES | Ratio: Thrombin/FXIa (Thrombin) | Ratio: FXa/FXIa (Factor Xa) | fraction unbound at 4 h, 10 μM [1] | solubility at 24 h [2] [µM] | Ratio: Trypsin/FXIa (Trypsin) |
| --- | --- | --- | --- | --- | --- |
| CC[C@@H](NC(=O)N1C(=O)[C@H](Cc2ccnc(N)c2)[C@H]1C(=O)N(C)c1ccn(C)n1)C1CCCCC1 [Compound 1-47, (2S,3R)-3-((2-aminopyridin-4-yl)methyl)-N2-(1-methyl-1H-pyrazol-3-yl)-N1-((R)-1-cyclohexylpropyl)-N2-methyl-4-oxoazetidine-1,2-dicarboxamide] | H (“H” indicates 101-1000) | I (“I” indicates > 500) | 0.05 to 0.09 | > 100 | G (“G” indicates 1-100) |
| CC[C@@H](NC(=O)N1C(=O)[C@H](Cc2cc(C)nc(N)c2)[C@H]1C(=O)N(C)c1ccn(C)n1)c1cccc(C)c1 [Compound 1-22, (2S,3R)-3-((2-amino-6-methylpyridin-4-yl)methyl)-N2-(1-methyl-1H-pyrazol-3-yl)-N1-((R)-1-(3-methylphenyl)propyl)-N2-methyl-4-oxoazetidine-1,2-dicarboxamide] | H (“H” indicates 101-1000) | H (“H” indicates 101-1000) | 0.1 to 0.5 | > 100 | G (“G” indicates 1-100) |
| CC[C@@H](NC(=O)N1C(=O)[C@H](Cc2cc(C)nc(N)c2)[C@H]1C(=O)N(C)c1ccnn1C)C1CCCCC1 [Compound 1-67, (2S,3R)-3-((2-amino-6-methylpyridin-4-yl)methyl)-N2-(1-methyl-1H-pyrazol-5-yl)-N1-((R)-1-cyclohexylpropyl)-N2-methyl-4-oxoazetidine-1,2-dicarboxamide] | I (“I” indicates > 500) | I (“I” indicates > 500) | 0.1 to 0.5 | > 100 | G (“G” indicates 1-100) |
| CC[C@@H](NC(=O)N1C(=O)[C@H](Cc2cc(C)nc(N)c2)[C@H]1C(=O)N(C)c1ccnn1C)c1ccc(C)c(C)c1 [Compound 1-152, (2S,3R)-3-((2-amino-6-methylpyridin-4-yl)methyl)-N2-(1-methyl-1H-pyrazol-5-yl)-N1-((R)-1-(3,4-dimethylphenyl)propyl)-N2-methyl-4-oxoazetidine-1,2-dicarboxamide] | I (“I” indicates > 500) | I (“I” indicates > 500) | 0.1 to 0.5 | > 100 | G (“G” indicates 1-100) |
| CC[C@@H](NC(=O)N1C(=O)[C@H](Cc2ccnc(N)c2)[C@H]1C(=O)N(C)c1ccnn1C)C1CCCCC1 [Compound 1-63, (2S,3R)-3-((2-aminopyridin-4-yl)methyl)-N2-(1-methyl-1H-pyrazol-5-yl)-N1-((R)-1-cyclohexylpropyl)-N2-methyl-4-oxoazetidine-1,2-dicarboxamide] | I (“I” indicates > 500) | I (“I” indicates > 500) | 0.1 to 0.5 | > 100 | G (“G” indicates 1-100) |
| CC[C@@H](NC(=O)N1C(=O)[C@H](Cc2ccnc(N)c2)[C@H]1C(=O)N(C)c1nccn1C)c1cccc(Cl)c1 [Compound 1-35, (2S,3R)-3-((2-aminopyridin-4-yl)methyl)-N2-(1-methyl-1H-imidazol-2-yl)-N1-((R)-1-(3-chlorophenyl)propyl)-N2-methyl-4-oxoazetidine-1,2-dicarboxamide] | H (“H” indicates 101-1000) | H (“H” indicates 101-1000) | 0.1 to 0.5 | > 100 | G (“G” indicates 1-100) |
| CC[C@@H](NC(=O)N1C(=O)[C@H](Cc2ccnc(N)c2)[C@H]1C(=O)N(C)c1cccs1)c1ccccc1 [Compound 1-10, (2S,3R)-3-((2-aminopyridin-4-yl)methyl)-N2-(thiophen-2-yl)-N1-((R)-1-phenylpropyl)-N2-methyl-4-oxoazetidine-1,2-dicarboxamide] | H (“H” indicates 101-1000) | H (“H” indicates 101-1000) | 0.05 to 0.09 | > 100 | G (“G” indicates 1-100) |
| CC[C@@H](NC(=O)N1C(=O)[C@H](Cc2cc(C)nc(N)c2)[C@H]1C(=O)N(C)c1cnn(C)c1)c1cccc(Cl)c1 [Compound 1-15, (2S,3R)-3-((2-amino-6-methylpyridin-4-yl)methyl)-N2-(1-methyl-1H-pyrazol-4-yl)-N1-((R)-1-(3-chlorophenyl)propyl)-N2-methyl-4-oxoazetidine-1,2-dicarboxamide] | G (“G” indicates 1-100) | H (“H” indicates 101-1000) | 0.1 to 0.5 | > 100 | G (“G” indicates 1-100) |

Continued, in another order:

| Ratio: Thrombin/FXIa (Thrombin) | Ratio: FXa/FXIa (Factor Xa) | fraction unbound at 4 h, 10 μM [1] | solubility at 24 h [2] [µM] | SMILES | Ratio: Trypsin/FXIa (Trypsin) |
| --- | --- | --- | --- | --- | --- |
| H (“H” indicates 101-1000) | I (“I” indicates > 500) | 0.05 to 0.09 | > 100 | CN(C(=O)[C@@H]1[C@@H](Cc2ccnc(N)c2)C(=O)N1C(=O)N[C@@H](C1CCCCC1)C1CC1)c1ccn(C)n1 [Compound 1-58, (2S,3R)-3-((2-aminopyridin-4-yl)methyl)-N2-(1-methyl-1H-pyrazol-3-yl)-N1-((R)-cyclohexyl-cyclopropylmethyl)-N2-methyl-4-oxoazetidine-1,2-dicarboxamide] | G (“G” indicates 1-100) |
| H (“H” indicates 101-1000) | H (“H” indicates 101-1000) | 0.1 to 0.5 | > 100 | CC[C@@H](NC(=O)N1C(=O)[C@H](Cc2ccnc(N)c2)[C@H]1C(=O)N(C)c1ccn(C)n1)c1cccc(Cl)c1 [Compound 1-91, (2S,3R)-3-((2-aminopyridin-4-yl)methyl)-N2-(1-methyl-1H-pyrazol-3-yl)-N1-((R)-1-(3-chlorophenyl)propyl)-N2-methyl-4-oxoazetidine-1,2-dicarboxamide] | G (“G” indicates 1-100) |
| H (“H” indicates 101-1000) | I (“I” indicates > 500) | 0.05 to 0.09 | > 100 | CC[C@@H](NC(=O)N1C(=O)[C@H](Cc2cc(C)nc(N)c2)[C@H]1C(=O)N(C)c1nccn1C)c1cc(F)ccc1F [Compound 1-137, (2S,3R)-3-((2-amino-6-methylpyridin-4-yl)methyl)-N2-(1-methyl-1H-imidazol-2-yl)-N1-((R)-1-(2,5-difluorophenyl)propyl)-N2-methyl-4-oxoazetidine-1,2-dicarboxamide] | G (“G” indicates 1-100) |
| I (“I” indicates > 500) | I (“I” indicates > 500) | 0.05 to 0.09 | > 100 | CC[C@@H](NC(=O)N1C(=O)[C@H](Cc2cc(C)nc(N)c2)[C@H]1C(=O)N(C)c1ccnn1C)c1ccc(F)c(F)c1 [Compound 1-158, (2S,3R)-3-((2-amino-6-methylpyridin-4-yl)methyl)-N2-(1-methyl-1H-pyrazol-5-yl)-N1-((R)-1-(3,4-difluorophenyl)propyl)-N2-methyl-4-oxoazetidine-1,2-dicarboxamide] | G (“G” indicates 1-100) |

Reference: patent publication US11691962B2 (eXIthera Pharmaceuticals, Inc., priority 2018, dated 2023)
